US11464854B2, “Methods and compositions relating to adjuvants” (Children's Medical Center Corporation, priority 2017, dated 2022)

Columns and labels:
human TLR7 = biological target: T1, human TLR7 (Homo sapiens, UniProt Q9NYK1); details: HEK293 cells stably expressing human TLR7 (ref. 24); cited from earlier work
T1 construct: host or cells: HEK293 with NF-kB-responsive SEAP reporter
T1 sequence (Q9NYK1 27-1049): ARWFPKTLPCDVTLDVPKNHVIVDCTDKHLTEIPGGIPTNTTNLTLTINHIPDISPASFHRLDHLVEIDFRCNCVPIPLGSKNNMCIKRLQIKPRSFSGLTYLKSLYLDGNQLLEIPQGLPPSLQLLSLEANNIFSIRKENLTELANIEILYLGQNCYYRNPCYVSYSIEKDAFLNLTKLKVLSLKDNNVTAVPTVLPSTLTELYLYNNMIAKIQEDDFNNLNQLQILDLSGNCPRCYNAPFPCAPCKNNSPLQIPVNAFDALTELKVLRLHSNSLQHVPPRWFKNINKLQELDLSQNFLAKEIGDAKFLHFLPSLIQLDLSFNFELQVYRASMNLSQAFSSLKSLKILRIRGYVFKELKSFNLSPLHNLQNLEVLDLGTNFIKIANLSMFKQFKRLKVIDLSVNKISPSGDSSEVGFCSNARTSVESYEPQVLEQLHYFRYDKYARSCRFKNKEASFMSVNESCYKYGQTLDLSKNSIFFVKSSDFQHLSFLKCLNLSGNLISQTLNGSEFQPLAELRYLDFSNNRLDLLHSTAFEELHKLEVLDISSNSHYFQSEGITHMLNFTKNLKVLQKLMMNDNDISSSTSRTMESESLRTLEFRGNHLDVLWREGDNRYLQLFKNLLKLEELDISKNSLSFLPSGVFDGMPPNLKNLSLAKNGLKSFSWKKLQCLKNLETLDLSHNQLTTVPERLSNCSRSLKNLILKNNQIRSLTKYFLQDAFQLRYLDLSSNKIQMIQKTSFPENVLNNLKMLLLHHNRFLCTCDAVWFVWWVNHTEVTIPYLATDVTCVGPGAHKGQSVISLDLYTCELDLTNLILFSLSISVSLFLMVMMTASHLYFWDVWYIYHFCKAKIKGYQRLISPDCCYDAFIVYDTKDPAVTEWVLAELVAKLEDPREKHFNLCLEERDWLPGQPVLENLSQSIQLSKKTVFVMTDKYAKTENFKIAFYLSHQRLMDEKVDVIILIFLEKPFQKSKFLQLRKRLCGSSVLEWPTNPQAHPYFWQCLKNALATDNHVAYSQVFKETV

[1] = tested on: cytokine and IFN-inducible gene expression in draining lymph nodes and spleen; format: in vivo, mice; details: mice
[2] = Safety and reactogenicity monitoring in neonatal/infant rhesus macaques; format: in vivo, rhesus macaques (Macaca mulatta)
Description: In vivo neonatal and infant rhesus macaque vaccination studies. Rhesus macaques (Indian origin Macaca mulatta) were obtained from the TNPRC specific pathogen-free breeding colony. Upon identification, pregnant dams were transferred to an indoor social group to allow for monitoring and delivery of infants. At birth, neonatal rhesus macaques (<24 hours of age) were enrolled into the longitudinal immunization study. Exclusion criteria were, a) maternal fever (≥40° C.) during infant exam on DOL0, b) birth weight<400 g, c) clinical signs of neonatal infection (e.g. infant temperature […]; nasal, ocular discharge; respiratory distress, cardiovascular instability), d) congenital defects (e.g. abnormal digits, omphalocele) and/or e) abnormal cling. Animals were group-housed in dam/infant pairs with a maximum of 4 pairs (8 animals) together. […] Standard physiological safety parameters, extrapolated from human infant clinical trials of PCV (28), included temperature and weight (normalized to Tulane National Primate Research Center reference standard for rhesus macaques), which were recorded at multiple time-points at observation/sample-acquisition, as well as local signs of reactogenicity such as leg circumference pre/post-immunization and photographic documentation of erythema (Table 4). […]

## CCCCCCCCCCCCCCCCCC(=O)NCCCCOn1c(CCCC)nc2c(N)nc3ccccc3c21 [3M-052, N-[4-[(4-amino-2-butyl-1H-imidazo[4,5-c]quinolin-1-yl)oxy]butyl]octadecanamide]
Human TLR7
  agonist activity, human TLR7: Dual agonist activity
[1]; SC administration
  IFN-related and TLR7 gene expression in the spleens: robust
  cytokine mRNA expression: little if any
[1]; single SC dose, lymph node tissue and splenocytes
  time of peak cytokine mRNA expression: 6 h
[2]; 3M-052- or (PCV13+3M-052)-treated infant animals, co-housed, second enrollment season
  animals with transient and mild maculopapular rash: 3 of the total of 16
[2]; with or without PCV13, first 63 days of life or 48 hours post (DOL30) a single dose
  systemic cytokine induction (plasma): did not induce systemic cytokine induction
